These results are taken from US6538005B2, “Phenanthridine-N-oxides with PDE-IV inhibiting activity” (ALTANA Pharma AG, priority 1999, dated 2003).

A word on the melting point: it is the temperature of the solid-liquid transition.

Data set [1] relates to PDE4. Briefly: Inhibition of PDE4 activity (method of Bauer and Schwabe, adapted to microtiter plates). The format is biochemical. The conditions noted are these: inhibitory concentration as −log IC50 (mol/l). From the text: The activity test can be carried out, for example, according to the method of Bauer and Schwabe. For this, the method is adapted to microfiter plates (Naunyn-Schmiedeberg's Arch. Pharmacol. 1980, 311, 193-198). The PDE reaction takes place in the first step here. In a second step, the resulting 5′-nucleotide is cleaved by a 5′-nucleotidase of the snake venom of Crotalus atrox to the uncharged nucleoside. In the third step, the nucleoside is separated from the remaining charged substrate on ion-exchange columns. The columns are eluted directly into minivials, into which 2 ml of scintillator fluid are additionally added for counting, using 2 ml of 30 mM ammonium formate (pH 6.0).
The inhibitory values determined for the compounds according to the invention [inhibitory concentration as −log IC50 (mol/l)] follow from the following Table A, in which the numbers of the compounds correspond to the numbers of the examples.

Regarding `COc1ccc(NC(=O)c2cccc(C3=[N+]([O-])C4CCCCC4c4cc(OC)c(OC)cc43)c2)cc1` (single isomer, unassigned; (-)) [Compound 1, (−)-cis-8,9-Dimethoxy-6-[3-(4-methoxyphenylamido)phenyl]-1,2,3,4,4a,10b-hexahydrophenanthridine-5-N-oxide], the melting point was 229 to 230 °C. Besides, the “−log IC50” value in data set [1] was 6.73 mol/l.
